Results taken from US12202805B2, “Process for preparing (5S)-{[2-(4-carboxyphenyl)ethyl] |2-(2-{|3-chloro-4'-(trifluoromethyl)biphenyl-4-yl]methoxy}phenyl)ethyl]aminol-5,6,7,8-tetrahydroquinoline-2-carboxylic acid and its crystalline forms for use as pharmaceutically active compound” (Bayer Aktiengesellschaft, priority 2021, dated 2025).

Key:
[1] = Filter experiments for deposited lung dose in the PAH minipig model and prediction of human dose; assay type: in vivo
Procedure: The anesthetized thromboxane A2 challenged PAH-minipig model (see experimental part E-1) is considered to be the most relevant and sensitive model for the prediction of the human minimal effective and effective doses (MED, ED). To determine effective LDs, experiments were repeated with the difference that absorbing filters were attached at the end of the tubes to determine the deposited lung dose. […] Assuming a minimal effective ND of 3 μg/kg (5% reduction in PAP) the minimal effective deposited LD is considered as 0.15 μg/kg.
The nominal doses of 3, 10, 30 and 100 μg/kg of the minipig model were multiplied by the filter deposition factor of 5% resulting in 0.15, 0.5, 1.5 and 5 μg/kg lung deposited doses in the minipig. These values were multiplied by 60 kg to achieve the lung dose in humans. Thus, the FPD reflecting the PAP reduction for a 60 kg human are calculated to be 9, 30, 90 and 300 μg.
Thus, via a direct up-scaling from minipig, the predictive MED (5% PAP reduction) for a human based on a 60 kg body weight is calculated to be 9 μg LDD, not considering protein binding within the respiratory tract. As a surrogate for unbound concentrations, which are the likely active concentrations in the lung, we considered respective differences in fractions unbound in plasma of minipig and human. […]

[2] = tested on: Caco-2 cells; assay: Caco-2 permeability test; assay type: in vitro ADME, human; settings: 2 μM, 2 h at 37° C.
Procedure: E-3. Further Characterization E-3.1 Caco-2 Permeability Test
The in vitro permeation of a test compound across a Caco-2 cell monolayer is a well-established assay system to predict the permeability from the gastro-intestinal tract (1). The permeability of the compounds of the present invention in such Caco-2 cells was determined as described below:
Human caco-2 cells were seeded on 24-well insert plates and were allowed to grow for 14-16 days. For permeability studies, the test compounds were dissolved in DMSO and diluted to the final test concentration of 2 μM with transport buffer [Hanks' Buffered Salt Solution, Gibco/Invitrogen, further supplemented with glucose and HEPES]. For determination of the apical to basolateral permeability (PappA-B), the test compound solution was added to the apical side of the cell monolayer and transport buffer to the basolateral side of the monolayer; for determination of the basolateral to apical permeability (PappB-A), the test compound solution was added to the basolateral side of the cell monolayer and transport buffer to the apical side of the monolayer. Samples were taken from the donor compartment at the beginning of the experiment to confirm mass balance. After an incubation of 2 h at 37° C., samples were taken from both compartments. Samples were analyzed by LC-MS/MS, and the apparent permeability coefficients were calculated. Lucifer Yellow permeability was assayed for each cell monolayer to ensure cell monolayer integrity, and the permeability of Atenolol (low permeability marker) and Sulfasalazine (marker for active excretion) was determined for each batch as quality control.

[3] = Micronization in spiral jet mill: solid form (XRPD) and particle size distribution; assay type: physicochemical; settings: for PSD X10 / PSD X50 / PSD X90: dry measurement 4 bar
Description: For inhalative drug products it is important to guarantee a homogeneous drug substance with defined particle size <5 μm to secure delivery to the deep lung compartments. This technical requirement can be afforded by micronization of the drug substance particles.
Generally no amorphization even partial nor form conversion should happen during the necessary micronization step.
The corresponding batches (examples 8a-8 d) were micronized using a 50 mm spiral jet mill and pressurized nitrogen with the following parameters (see table 16b).
The corresponding batches were micronized using a 100 mm spiral jet mill and pressurized nitrogen with the following parameters (see table 16c).
All measurements cited in the above tables were obtained by laser diffraction with dry dispersion using compressed air. Measuring in aqueous suspension with surfactants may lead to smaller particle sizes (×90 up to 1 μm smaller).

[4] = E-2.1 plasma concentrations over time after inhalation in healthy male subjects; assay type: in vivo, human; settings: all doses administered
Procedure: Healthy White male subjects, aged 18 to 45 years and with a body mass index (BMI) above/equal 18.5 and below/equal 29.9 kg/m2 were treated in a clinical pharmacological phase I study on seven days with inhaled once daily doses of 480 μg or 1000 μg or 2000 μg (2 capsules of 1000 μg) (nominal dose) of dry powder formulations comprising example 2 or Placebo. The subjects inhaled the drug powder from capsules (see under C-1, e.g. tables 22 and 23) inserted into a handheld inhalation device by one deep inhalative breath. The dry powder formulation of the drug is dispersed into the airstream and fine particles are transported into the deep parts of the lung where it is intended to cause a vasodilation of the blood vessels in PH patients for a substantial reduction of increased blood pressure in the central pulmonary blood vessels in PAH patients or other subtypes of PH. This effect cannot be shown in subjects with healthy lungs. In addition inhaled drug causes a dilation of the bronchial airways and thus also improves disease states of lung diseases in PH patients with pathological bronchoconstriction. This effect was measured via bodyplethysmography as reduction of Specific Airway Resistance in healthy subjects. […]

[5] = PTFE coated jet mill, 25° C., 4.5/4.0 bar, 4.5 g/min
[6] = VA jet mill 50 mm, 25° C., 4.5/4.0 bar, 4.5 g/min
[7] = VA jet mill (low stress conditions), −65° C., 4.5/3.0 bar, 10.6 g/min
[8] = VA jet mill, −65° C., 4.5/4.0 bar, 5.5 g/min
[9] = after micronization, 100 mm spiral jet mill, monohydrate I as starting material

O=C(O)c1ccc(CCN(CCc2ccccc2OCc2ccc(-c3ccc(C(F)(F)F)cc3)cc2Cl)[C@H]2CCCc3nc(C(=O)O)ccc32)cc1 [comparative example 11, (5S)-5-{[2-(4-carboxyphenyl)ethyl][2-(2-{[3-chloro-4′-(trifluoromethyl)[biphenyl]-4-yl]methoxy}phenyl)ethyl]amino}-5,6,7,8-tetrahydroquinoline-2-carboxylic acid]
minimal effective lung deposited dose for a human patient of 60 kg body weight ([1]; with or without effect of different protein binding): 9 to 41 µg | efflux ratio [2]: does not show an efflux ratio

O=C(O)c1ccc(CCN(CCc2ccccc2OCc2ccc(-c3ccc(C(F)(F)F)cc3)cc2Cl)[C@H]2CCCc3nc(C(=O)O)ccc32)cc1 [example 2, (5S)—{[2-(4-Carboxyphenyl)ethyl][2-(2-{[3-chloro-4′-(trifluoromethyl)biphenyl-4-yl]methoxy}phenyl)-ethyl]amino}-5,6,7,8-tetrahydroquinoline-2-carboxylic acid as Monohydrate II]
PSD X10 [3, 5]: X10: 0.7 μm, | PSD X50 [3, 5]: X50: 1.9 μm, | PSD X90 [3, 5]: X90: 5.0 μm | PSD X10 [3, 6]: X10: 0.4 μm, | PSD X50 [3, 6]: X50: 1.7 μm, | PSD X90 [3, 6]: X90: 4.2 μm | PSD X10 [3, 7]: X10: 0.5 μm, | PSD X50 [3, 7]: X50: 2.3 μm, | PSD X90 [3, 7]: X90: 9.6 μm | PSD X10 [3, 8]: X10: 0.4 μm, | PSD X50 [3, 8]: X50: 1.8 μm, | PSD X90 [3, 8]: X90: 4.8 μm | XRPD form after micronization ([3]; batch of example 2): monohydrate II with partial amorphization | ratio of fraction unbound minipig/human ([1]; plasma): 4.55 | persistence of measurable plasma concentration after first inhalation [4]: 48 h

O=C(O)c1ccc(CCN(CCc2ccccc2OCc2ccc(-c3ccc(C(F)(F)F)cc3)cc2Cl)[C@H]2CCCc3nc(C(=O)O)ccc32)cc1 [example 4, (5S)—{[2-(4-Carboxyphenyl)ethyl][2-(2-{[3-chloro-4′-(trifluoromethyl)biphenyl-4-yl]methoxy}phenyl)-ethyl]amino}-5,6,7,8-tetrahydroquinoline-2-carboxylic acid as Monohydrate I]
stability under micronization conditions ([3]; 100 mm spiral jet mill, pressurized nitrogen): stable | PSD X10 [3, 9]: X10: 0.7 μm, | PSD X50 [3, 9]: X50: 2.1 μm, | PSD X90 [3, 9]: X90: 6.1 μm
